Assay results from US8445501B2, “Substituted 7-carboxamido-pyrrolo[3,2-d]pyrimidines” (Takeda GmbH, priority 2008, dated 2013).

Target: T1, human PDE5 (Homo sapiens, UniProt O76074)
T1 construct: from tissue; host or cells: platelets from fresh blood of human donors (lysate, 10,000 g supernatant)
Test: Inhibition of the type 5 phosphodiesterase (PDE5) activity, modified SPA test with platelet lysate
Assay type: biochemical
Details: PDE5 from human platelet lysate, 0.5 μM cGMP
Method in brief: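 SPA-based cGMP hydrolysis, [3H]cGMP tracer in 0.5 μM cGMP, by sonicated human platelet lysate; motapizone (1 μM) and a PDE2 inhibitor (10 nM) block other PDEs. Reaction 15 min at 37 °C after 5 min preincubation, quenched with beads containing IBMX. IC50 from concentration-effect curves.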

Compound	IC50 [nM]
CCCOc1ccc2c(c1-c1ncnc3c(C(=O)NC4CCN(C(=O)OCC)CC4)c[nH]c13)OCO2 [Example 140, 4-{[4-(5-Propoxy-benzo[1,3]dioxol-4-yl)-5H-pyrrolo[3,2-d]pyrimidine-7-carbonyl]-amino}-piperidine-1-carboxylic acid ethyl ester]	0.148
CCCOc1ccc2c(c1-c1ncnc3c(C(=O)N[C@@H]4CCN(C(=O)CC)C4)c[nH]c13)OCO2 [Example 141, 4-(5-Propoxy-benzo[1,3]dioxol-4-yl)-5H-pyrrolo[3,2-d]pyrimidine-7-carboxylic acid ((R)-1-propionyl-pyrrolidin-3-yl)-amide]	0.933
CCCOc1ccc2c(c1-c1ncnc3c(C(=O)N[C@@H]4CCN(C(=O)OCC)C4)c[nH]c13)OCO2 [Example 142, (R)-3-{[4-(5-Propoxy-benzo[1,3]dioxol-4-yl)-5H-pyrrolo[3,2-d]pyrimidine-7-carbonyl]amino}-pyrrolidine-1-carboxylic acid ethyl ester]	0.617
CCCOc1ccc2c(c1-c1ncnc3c(C(=O)N[C@@H]4CCN(C(=O)COC)C4)c[nH]c13)OCO2 [Example 143, 4-(5-Propoxy-benzo[1,3]dioxol-4-yl)-5H-pyrrolo[3,2-d]pyrimidine-7-carboxylic acid [(R)-1-(2-methoxy-acetyl)-pyrrolidin-3-yl]amide]	1.51
CCCCOc1ccc2c(c1-c1ncnc3c(C(=O)NC4CCN(C(=O)CC)CC4)c[nH]c13)OCO2 [Example 144, 4-(5-Butoxy-benzo[1,3]dioxol-4-yl)-5H-pyrrolo[3,2-d]pyrimidine-7-carboxylic acid (1-propionyl-piperidin-4-yl)-amide]	0.115
CCCCOc1ccc2c(c1-c1ncnc3c(C(=O)NC4CCN(C(=O)OCC)CC4)c[nH]c13)OCO2 [Example 145, 4-{[4-(5-Butoxy-benzo[1,3]dioxol-4-yl)-5H-pyrrolo[3,2-d]pyrimidine-7-carbonyl]-amino}-piperidine-1-carboxylic acid ethyl ester]	0.1
CCCCOc1ccc2c(c1-c1ncnc3c(C(=O)NC4CCN(C=O)CC4)c[nH]c13)OCO2 [Example 146, 4-(5-Butoxy-benzo[1,3]dioxol-4-yl)-5H-pyrrolo[3,2-d]pyrimidine-7-carboxylic acid (1-formyl-piperidin-4-yl)-amide]	0.229
CCCCOc1ccc2c(c1-c1ncnc3c(C(=O)NC4CCCN(C(=O)CC)C4)c[nH]c13)OCO2 (centres unmarked) [Example 147, 4-(5-Butoxy-benzo[1,3]dioxol-4-yl)-5H-pyrrolo[3,2-d]pyrimidine-7-carboxylic acid (1-propionyl-piperidin-3-yl)-amide]	0.24
CCCCOc1ccc2c(c1-c1ncnc3c(C(=O)NC4CCCN(C(=O)OCC)C4)c[nH]c13)OCO2 (centres unmarked) [Example 148, 3-{[4-(5-Butoxy-benzo[1,3]dioxol-4-yl)-5H-pyrrolo[3,2-d]pyrimidine-7-carbonyl]-amino}-piperidine-1-carboxylic acid ethyl ester]	0.407
CCCCOc1ccc2c(c1-c1ncnc3c(C(=O)NC4CCCN(C(=O)COC)C4)c[nH]c13)OCO2 (centres unmarked) [Example 149, 4-(5-Butoxy-benzo[1,3]dioxol-4-yl)-5H-pyrrolo[3,2-d]pyrimidine-7-carboxylic acid [1-(2-methoxy-acetyl)piperidin-3-yl]-amide]	0.295
CCCCOc1ccc2c(c1-c1ncnc3c(C(=O)N[C@@H]4CCN(C(=O)CC)C4)c[nH]c13)OCO2 [Example 150, 4-(5-Butoxy-benzo[1,3]dioxol-4-yl)-5H-pyrrolo[3,2-d]pyrimidine-7-carboxylic acid ((R)-1-propionyl-pyrrolidin-3-yl)-amide]	0.389
CCCCOc1ccc2c(c1-c1ncnc3c(C(=O)N[C@@H]4CCN(C(=O)OCC)C4)c[nH]c13)OCO2 [Example 151, (R)-3-{[4-(5-Butoxy-benzo[1,3]dioxol-4-yl)-5H-pyrrolo[3,2-d]pyrimidine-7-carbonyl]amino}-pyrrolidine-1-carboxylic acid ethyl ester]	0.295
COCCOc1cc(OC)ccc1-c1ncnc2c(C(=O)N[C@H]3CC[C@@H](NC(C)=O)CC3)c[nH]c12 [Example 152, cis-4-[4-Methoxy-2-(2-methoxy-ethoxy)-phenyl]-5H-pyrrolo[3,2-d]pyrimidine-7-carboxylic acid (4-acetylamino-cyclohexyl)-amide]	14.5
COCCOc1cc(OC)ccc1-c1ncnc2c(C(=O)N[C@H]3CC[C@@H](NC(=O)C4CC4)CC3)c[nH]c12 [Example 153, cis-4-[4-Methoxy-2-(2-methoxy-ethoxy)-phenyl]-5H-pyrrolo[3,2-d]pyrimidine-7-carboxylic acid [4-(cyclopropanecarbonyl-amino)cyclohexyl]-amide]	6.17
COCCOc1cc(OC)ccc1-c1ncnc2c(C(=O)N[C@H]3CC[C@@H](NC(=O)COC)CC3)c[nH]c12 [Example 154, cis-4-[4-Methoxy-2-(2-methoxy-ethoxy)-phenyl]-5H-pyrrolo[3,2-d]pyrimidine-7-carboxylic acid [4-(2-methoxy-acetylamino)-cyclohexyl]-amide]	17
COCCOc1cc(OC)ccc1-c1ncnc2c(C(=O)N[C@H]3CC[C@H](NC(C)=O)CC3)c[nH]c12 [Example 155, trans-4-[4-Methoxy-2-(2-methoxy-ethoxy)-phenyl]-5H-pyrrolo[3,2-d]pyrimidine-7-carboxylic acid (4-acetylamino-cyclohexyl)-amide]	9.55
COCCOc1cc(OC)ccc1-c1ncnc2c(C(=O)N[C@H]3CC[C@H](NC(=O)C4CC4)CC3)c[nH]c12 [Example 156, trans-4-[4-Methoxy-2-(2-methoxy-ethoxy)-phenyl]-5H-pyrrolo[3,2-d]pyrimidine-7-carboxylic acid [4-(cyclopropanecarbonyl-amino)cyclohexyl]-amide]	6.61
COCCOc1cc(OC)ccc1-c1ncnc2c(C(=O)N[C@H]3CC[C@H](NC(=O)COC)CC3)c[nH]c12 [Example 157, trans-4-[4-Methoxy-2-(2-methoxy-ethoxy)-phenyl]-5H-pyrrolo[3,2-d]pyrimidine-7-carboxylic acid [4-(2-methoxy-acetylamino)-cyclohexyl]-amide]	15.5
COCCOc1cc(OC)ccc1-c1ncnc2c(C(=O)NC3CCN(C(C)=O)CC3)c[nH]c12 [Example 158, 4-[4-Methoxy-2-(2-methoxy-ethoxy)-phenyl]-5H-pyrrolo[3,2-d]pyrimidine-7-carboxylic acid (1-acetyl-piperidin-4-yl)-amide]	24
COCCOc1cc(OC)ccc1-c1ncnc2c(C(=O)NC3CCN(C(=O)C4CC4)CC3)c[nH]c12 [Example 159, 4-[4-Methoxy-2-(2-methoxy-ethoxy)-phenyl]-5H-pyrrolo[3,2-d]pyrimidine-7-carboxylic acid (1-cyclopropanecarbonyl-piperidin-4-yl)-amide]	6.03
COCCOc1cc(OC)ccc1-c1ncnc2c(C(=O)NC3CCN(C(=O)COC)CC3)c[nH]c12 [Example 160, 4-[4-Methoxy-2-(2-methoxy-ethoxy)-phenyl]-5H-pyrrolo[3,2-d]pyrimidine-7-carboxylic acid [1-(2-methoxy-acetyl)-piperidin-4-yl]-amide]	23.4
COCCOc1ccc2c(c1-c1ncnc3c(C(=O)N[C@H]4CC[C@H](NC(C)=O)CC4)c[nH]c13)OCO2 [Example 161, trans-4-[5-(2-Methoxy-ethoxy)-benzo[1,3]dioxol-4-yl]-5H-pyrrolo[3,2-d]pyrimidine-7-carboxylic acid (4-acetylamino-cyclohexyl)-amide]	5.25
COCCOc1ccc2c(c1-c1ncnc3c(C(=O)N[C@H]4CC[C@H](NC(=O)C5CC5)CC4)c[nH]c13)OCO2 [Example 162, trans-4-[5-(2-Methoxy-ethoxy)-benzo[1,3]dioxol-4-yl]-5H-pyrrolo[3,2-d]pyrimidine-7-carboxylic acid (4-(cyclopropanecarbonyl-amino)-cyclohexyl]-amide]	11
COCCOc1ccc2c(c1-c1ncnc3c(C(=O)N[C@H]4CC[C@@H](NC(C)=O)CC4)c[nH]c13)OCO2 [Example 164, cis-4-[5-(2-Methoxy-ethoxy)-benzo[1,3]dioxol-4-yl]-5H-pyrrolo[3,2-d]pyrimidine-7-carboxylic acid (4-acetylamino-cyclohexyl)-amide]	7.76
COCCOc1ccc2c(c1-c1ncnc3c(C(=O)N[C@H]4CC[C@@H](NC(=O)C5CC5)CC4)c[nH]c13)OCO2 [Example 165, cis-4-[5-(2-Methoxy-ethoxy)-benzo[1,3]dioxol-4-yl]-5H-pyrrolo[3,2-d]pyrimidine-7-carboxylic acid [4-(cyclopropanecarbonyl-amino)-cyclohexyl]-amide]	5.89
COCCOc1ccc2c(c1-c1ncnc3c(C(=O)N[C@H]4CC[C@@H](NC(=O)COC)CC4)c[nH]c13)OCO2 [Example 166, cis-4-[5-(2-Methoxy-ethoxy)-benzo[1,3]dioxol-4-yl]-5H-pyrrolo[3,2-d]pyrimidine-7-carboxylic acid [4-(2-methoxy-acetylamino)-cyclohexyl]-amide]	10.2
CCOC(=O)N[C@H]1CC[C@@H](NC(=O)c2c[nH]c3c(-c4c(OCCOC)ccc5c4OCO5)ncnc23)CC1 [Example 167, cis-[4-({4-[5-(2-Methoxy-ethoxy)-benzo[1,3]dioxol-4-yl]-5H-pyrrolo[3,2-d]pyrimidine-7-carbonyl}-amino)-cyclohexyl]-carbamic acid ethyl ester]	5.25
COCCOc1ccc2c(c1-c1ncnc3c(C(=O)NC4CCN(C(C)=O)CC4)c[nH]c13)OCO2 [Example 168, 4-[5-(2-Methoxy-ethoxy)-benzo[1,3]dioxol-4-yl]-5H-pyrrolo[3,2-d]pyrimidine-7-carboxylic acid (1-acetyl-piperidin-4-yl)-amide]	7.94
COCCOc1ccc2c(c1-c1ncnc3c(C(=O)NC4CCN(C(=O)C5CC5)CC4)c[nH]c13)OCO2 [Example 169, 4-[5-(2-Methoxy-ethoxy)-benzo[1,3]dioxol-4-yl]-5H-pyrrolo[3,2-d]pyrimidine-7-carboxylic acid (1-cyclopropanecarbonyl-piperidin-4-yl)-amide]	1.74
